Measured values taken from patent US8871929B2, “Fused-imidazoyl compounds useful as antimicrobial agents” (Merck Sharp & Dohme Corp., priority 2010, dated 2014).

test system: Staphylococcus aureus ATCC29213; test: Susceptibility testing (MIC determination), broth microdilution; type: cell-based; conditions: Mueller Hinton broth, 96-well plate, overnight incubation at 35° C., read-out: MIC Staph. aureus ATCC-29213
Experimental: Compounds useful in the method of the invention were investigated for their utility as antimicrobial agents in the following assay. Susceptibility testing (MIC determinations) was performed using the standard broth microdilution methodology precisely as described in the Clinical Laboratory Standards Institute Document M7-A6; Methods for Dilution Antimicrobial Susceptibility Tests for Bacteria That Grow Aerobically; […] To perform the test, a series of 0.1 ml media in a 96-well plate is prepared with Mueller Hinton broth to which various concentrations of the test compound are added. The media are then inoculated with a standardized suspension of the test organism, Staphylococcus aureus ATCC29213. After overnight incubation at 35° C., the tests are examined and the minimal inhibitory concentration (MIC) is determined. MIC is defined as the lowest concentration of an antimicrobial agent that prevents visible growth of a microorganism in the broth microdilution susceptibility test

MIC, 0.125 µg/mL:
CCN1CCc2cc(-c3nc4ccccn4c3NCC(=O)N3CCN(c4c(Cl)cncc4Cl)CC3)ccc21 [Compound 2], O=C(CNc1c(-c2ccc(N3CCSCC3)nc2)nc2cnccn12)N1CCN(c2c(Cl)cncc2Cl)CC1 [Compound 3], Cc1ccc2nc(-c3ccc(N4CCOCC4)cc3)c(NCC(=O)N3CCN(c4c(Cl)cncc4Cl)CC3)n2c1 [Compound 78], O=C(CNc1c(-c2ccc(N3CCOCC3)cc2)nc2cc(C(F)(F)F)ccn12)N1CCN(c2c(Cl)cncc2Cl)CC1 [Compound 82], O=C(CNc1c(-c2ccc(N3CCOCC3)cc2)nc2ccc(F)cn12)N1CCN(c2c(Cl)cncc2Cl)CC1 [Compound 83]

MIC, 0.31 µg/mL:
CN(C)c1ccc(-c2nc3ccccn3c2NCC(=O)N2CCN(c3c(Cl)cncc3Cl)CC2)cc1 [Compound 28]

MIC, 0.03 µg/mL:
Cc1cccc2nc(-c3ccc(N4CCOCC4)cc3)c(NCC(=O)N3CCN(c4c(Cl)cncc4Cl)CC3)n12 [Compound 76]

MIC, 0.313 µg/mL:
N#Cc1ccccc1N1CCN(C(=O)CNc2c(-c3ccc(N4CCCC4)cc3)nc3ccccn23)CC1 [Compound 35], O=C(CNc1c(-c2ccc(N3CCCC3)cc2)nc2ccccn12)N1CCN(c2c(Cl)cccc2Cl)CC1 [Compound 41], N#Cc1ccccc1N1CCN(C(=O)CNc2c(-c3ccc(N4CCCC4)cc3)nc3cnccn23)CC1 [Compound 46]

MIC, 0.4 µg/mL:
O=C(CNc1c(-c2ccc(N3CCOCC3)nc2)nc2cnccn12)N1CCN(c2c(Cl)cncc2Cl)CC1 [Compound 7]

MIC, 3 µg/mL:
CCc1ccc(-c2nc3cnccn3c2NCC(=O)N2CCN(c3c(Cl)cccc3Cl)CC2)s1 [Compound 18]

MIC, 0.46 µg/mL:
O=C(CNc1c(-c2ccc(N3CCCC3)nc2)nc2cnccn12)N1CCN(c2c(Cl)cncc2Cl)CC1 [Compound 9]

MIC, 6 µg/mL:
CN(C)c1ccc(-c2nc3ccccn3c2NCC(=O)N2CCN(c3ncccc3C#N)CC2)cc1 [Compound 55], CN(C)c1ccc(-c2nc3cnccn3c2NCC(=O)N2CCN(c3ccccc3C#N)CC2)cc1 [Compound 58], CN(C)c1ccc(-c2nc3cnccn3c2NCC(=O)N2CCN(c3ncccc3C#N)CC2)cc1 [Compound 59]

MIC, 0.44 µg/mL:
O=C(CNc1c(-c2ccc(N3CCCCC3)nc2)nc2cnccn12)N1CCN(c2c(Cl)cncc2Cl)CC1 [Compound 8]

MIC, 1 µg/mL:
CC(C)N1CCCc2cc(-c3nc4cnccn4c3NCC(=O)N3CCN(c4c(Cl)cncc4Cl)CC3)ccc21 [Compound 14], CC(C)N1CCc2cc(-c3nc4cnccn4c3NCC(=O)N3CCN(c4c(Cl)cncc4Cl)CC3)ccc21 [Compound 15], CSc1ccccc1N1CCN(C(=O)CNc2c(-c3ccc(N4CCCC4)cc3)nc3ccccn23)CC1 [Compound 39], Cc1ccc(Cl)cc1N1CCN(C(=O)CNc2c(-c3ccc(N4CCCC4)cc3)nc3ccccn23)CC1 [Compound 40], CC(C)c1ccc(-c2nc3cnccn3c2NCC(=O)N2CCN(c3c(Cl)cccc3Cl)CC2)cc1 [Compound 65]

MIC, 0.96 µg/mL:
CN1CCCc2cc(-c3nc4cnccn4c3NCC(=O)N3CCN(c4c(Cl)cncc4Cl)CC3)ccc21 [Compound 13]

MIC, 0.25 µg/mL:
Cc1cccc2nc(-c3ccc(N4CCOCC4)nc3)c(NCC(=O)N3CCN(c4c(Cl)cncc4Cl)CC3)n12 [Compound 5], Cc1ccc2nc(-c3ccc(N4CCOCC4)nc3)c(NCC(=O)N3CCN(c4c(Cl)cncc4Cl)CC3)n2c1 [Compound 6], CN(C)c1ccc(-c2nc3ccccn3c2NCC(=O)N2CCN(c3c(Cl)cccc3Cl)CC2)cc1 [Compound 57], CN(C)c1ccc(-c2nc3cnccn3c2NCC(=O)N2CCN(c3c(Cl)cccc3Cl)CC2)cc1 [Compound 61], O=C(CNc1c(-c2ccc(N3CCOCC3)cc2)nc2cccc(C(F)(F)F)n12)N1CCN(c2c(Cl)cncc2Cl)CC1 [Compound 80], O=C(CNc1c(-c2ccc(N3CCOCC3)cc2)nc2ccc(Cl)cn12)N1CCN(c2c(Cl)cncc2Cl)CC1 [Compound 81]

MIC, 2.5 µg/mL:
O=C(CNc1c(-c2ccc(N3CCCC3)cc2)nc2ccccn12)N1CCN(c2ccncc2Cl)CC1 [Compound 42], Cc1ccc(Cl)cc1N1CCN(C(=O)CNc2c(-c3ccc(N4CCCC4)cc3)nc3cnccn23)CC1 [Compound 50]

MIC, 8 µg/mL:
Cn1ccc2cc(-c3nc4cnccn4c3NCC(=O)N3CCN(c4c(Cl)cncc4Cl)CC3)ccc21 [Compound 22], CCc1ccc(-c2nc3cnccn3c2NCC(=O)N2CCN(c3c(Cl)cccc3Cl)CC2)o1 [Compound 23], CC(C)N1CCCc2cc(-c3nc4cnccn4c3NCC(=O)N3CCN(c4ccccc4C#N)CC3)ccc21 [Compound 24], CCCN1CCCc2cc(-c3nc4cnccn4c3NCC(=O)N3CCN(c4c(Cl)cncc4Cl)CC3)ccc21 [Compound 25], CCN1CCc2cc(-c3nc4cnccn4c3NCC(=O)N3CCN(c4ncccc4C#N)CC3)ccc21 [Compound 26], Cc1ccccc1C1CCN(C(=O)CNc2c(-c3ccc(N4CCCC4)cc3)nc3ccccn23)CC1 [Compound 43], Cc1ccc(Cl)cc1N1CCN(C(=O)CNc2c(-c3ccc(N(C)C)cc3)nc3cnccn23)CC1 [Compound 60], CN(C)c1ccc(-c2nc3cnccn3c2NCC(=O)N2CCC(c3cccc4ccccc34)CC2)cc1 [Compound 62], CC(C)c1ccc(-c2nc3cnccn3c2NCC(=O)N2CCN(c3ccccc3C#N)CC2)cc1 [Compound 66], O=C(CNc1c(-c2ccc(N3CCCC3)cc2)nc2cnccn12)N1CCN(c2ccccc2C(F)(F)F)CC1 [Compound 72]

MIC, 0.06 µg/mL:
O=C(CNc1c(-c2ccc(N3CCOCC3)nc2)nc2cccc(Cl)n12)N1CCN(c2c(Cl)cncc2Cl)CC1 [Compound 1], O=C(CNc1c(-c2ccc(N3CCCC3)cc2)nc2ccccn12)N1CCN(c2c(Cl)cncc2Cl)CC1 [Compound 27], Cc1ccn2c(NCC(=O)N3CCN(c4c(Cl)cncc4Cl)CC3)c(-c3ccc(N4CCOCC4)cc3)nc2c1 [Compound 74], O=C(CNc1c(-c2ccc(N3CCOCC3)cc2)nc2ccc(C(F)(F)F)cn12)N1CCN(c2c(Cl)cncc2Cl)CC1 [Compound 77], O=C(CNc1c(-c2ccc(N3CCOCC3)cc2)nc2cccc(Cl)n12)N1CCN(c2c(Cl)cncc2Cl)CC1 [Compound 79]

MIC, 0.09 µg/mL:
O=C(CNc1c(-c2ccc(N3CCOCC3)cc2)nc2ccccn12)N1CCN(c2c(Cl)cncc2Cl)CC1 [Compound 73]

MIC, 0.5 µg/mL:
CN1CCOc2cc(-c3nc4cnccn4c3NCC(=O)N3CCN(c4c(Cl)cncc4Cl)CC3)ccc21 [Compound 10], CCN1CCCc2cc(-c3nc4cnccn4c3NCC(=O)N3CCN(c4c(Cl)cncc4Cl)CC3)ccc21 [Compound 11], CN(C)c1ccc(-c2nc3cnccn3c2NCC(=O)N2CCN(c3c(Cl)cncc3Cl)CC2)cn1 [Compound 12], Cc1cccc(C)c1N1CCN(C(=O)CNc2c(-c3ccc(N4CCCC4)cc3)nc3ccccn23)CC1 [Compound 37]

MIC, 0.19 µg/mL:
CCN1CCc2cc(-c3nc4cnccn4c3NCC(=O)N3CCN(c4c(Cl)cncc4Cl)CC3)ccc21 [Compound 33]

MIC, 0.625 µg/mL:
N#Cc1cccnc1N1CCN(C(=O)CNc2c(-c3ccc(N4CCCC4)cc3)nc3ccccn23)CC1 [Compound 36], N#Cc1cccnc1N1CCN(C(=O)CNc2c(-c3ccc(N4CCCC4)cc3)nc3cnccn23)CC1 [Compound 47]

MIC, 4 µg/mL:
CCN1CCc2cc(-c3nc4cnccn4c3NCC(=O)N3CCN(c4ccccc4C#N)CC3)ccc21 [Compound 19], O=C(CNc1c(-c2cnc(N3CCCCC3)nc2)nc2cnccn12)N1CCN(c2c(Cl)cncc2Cl)CC1 [Compound 21], O=C(CNc1c(-c2ccc(N3CCCC3)cc2)nc2ccccn12)N1CCC(c2cccc3ccccc23)CC1 [Compound 44], CC(C)c1ccc(-c2nc3cnccn3c2NCC(=O)N2CCN(c3ncccc3C#N)CC2)cc1 [Compound 67], CCc1ccc(-c2nc3cnccn3c2NCC(=O)N2CCN(c3c(Cl)cccc3Cl)CC2)cc1 [Compound 70]

MIC, 5 µg/mL:
Cc1cccc(N2CCN(C(=O)CNc3c(-c4ccc(N5CCCC5)cc4)nc4ccccn34)CC2)c1C [Compound 29], O=C(CNc1c(-c2ccc(N3CCCC3)cc2)nc2ccccn12)N1CCN(c2ccccc2Cl)CC1 [Compound 30], CN(C)c1ccc(-c2nc3ccccn3c2NCC(=O)N2CCN(c3ccccc3Cl)CC2)cc1 [Compound 31], Cc1ccccc1N1CCN(C(=O)CNc2c(-c3ccc(N4CCCC4)cc3)nc3ccccn23)CC1 [Compound 34], CSc1ccccc1N1CCN(C(=O)CNc2c(-c3ccc(N4CCCC4)cc3)nc3cnccn23)CC1 [Compound 49], O=C(CNc1c(-c2ccc(N3CCCC3)cc2)nc2cnccn12)N1CCN(c2ccncc2Cl)CC1 [Compound 51], O=C(CNc1c(-c2ccc(N3CCCC3)cc2)nc2cnccn12)N1CCC(c2cccc3ccccc23)CC1 [Compound 52]

MIC, 2 µg/mL:
CCc1ccc(-c2nc3cnccn3c2NCC(=O)N2CCN(c3c(Cl)cncc3Cl)CC2)s1 [Compound 16], CCCN1CCc2cc(-c3nc4cnccn4c3NCC(=O)N3CCN(c4c(Cl)cncc4Cl)CC3)ccc21 [Compound 17], Cc1cccc(C)c1N1CCN(C(=O)CNc2c(-c3ccc(N(C)C)cc3)nc3ccccn23)CC1 [Compound 56]
